Test results from patent publication US6492365B1, “Microsomal triglyceride transfer protein” (Bristol-Myers Squibb Company, priority 1992, dated 2002).
Counter-ions that a name gives are not always drawn.

Molecular target: T1, bovine MTP (Bos taurus, UniProt P55156)
T1 construct: with about 50-200 ng purified MTP in the well of a 96-well plate; from tissue; host or cells: bovine liver
T1 sequence (P55156 12-887): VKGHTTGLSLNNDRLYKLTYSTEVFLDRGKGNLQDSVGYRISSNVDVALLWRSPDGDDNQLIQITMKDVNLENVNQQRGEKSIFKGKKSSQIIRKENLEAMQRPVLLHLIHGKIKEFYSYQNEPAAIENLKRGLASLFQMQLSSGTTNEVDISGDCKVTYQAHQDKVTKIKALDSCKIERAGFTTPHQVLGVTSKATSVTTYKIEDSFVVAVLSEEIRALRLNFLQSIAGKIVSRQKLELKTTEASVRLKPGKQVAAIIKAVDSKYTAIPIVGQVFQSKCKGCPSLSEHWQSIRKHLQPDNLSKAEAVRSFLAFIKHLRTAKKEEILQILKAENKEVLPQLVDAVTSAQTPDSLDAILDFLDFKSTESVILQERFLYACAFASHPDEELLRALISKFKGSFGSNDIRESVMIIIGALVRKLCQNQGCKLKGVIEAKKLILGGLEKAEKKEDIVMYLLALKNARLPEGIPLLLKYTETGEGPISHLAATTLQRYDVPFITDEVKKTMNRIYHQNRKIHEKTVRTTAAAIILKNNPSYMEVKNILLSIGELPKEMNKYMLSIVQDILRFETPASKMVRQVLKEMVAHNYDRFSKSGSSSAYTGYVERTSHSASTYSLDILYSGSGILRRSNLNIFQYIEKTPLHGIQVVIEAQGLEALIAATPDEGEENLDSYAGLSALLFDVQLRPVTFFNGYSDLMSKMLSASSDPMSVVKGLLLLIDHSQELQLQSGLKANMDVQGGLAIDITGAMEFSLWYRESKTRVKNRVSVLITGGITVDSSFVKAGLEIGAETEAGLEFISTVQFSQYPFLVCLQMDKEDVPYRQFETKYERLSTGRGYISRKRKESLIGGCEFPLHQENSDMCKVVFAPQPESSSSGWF
T1 sequence (P05307 21-510 partner): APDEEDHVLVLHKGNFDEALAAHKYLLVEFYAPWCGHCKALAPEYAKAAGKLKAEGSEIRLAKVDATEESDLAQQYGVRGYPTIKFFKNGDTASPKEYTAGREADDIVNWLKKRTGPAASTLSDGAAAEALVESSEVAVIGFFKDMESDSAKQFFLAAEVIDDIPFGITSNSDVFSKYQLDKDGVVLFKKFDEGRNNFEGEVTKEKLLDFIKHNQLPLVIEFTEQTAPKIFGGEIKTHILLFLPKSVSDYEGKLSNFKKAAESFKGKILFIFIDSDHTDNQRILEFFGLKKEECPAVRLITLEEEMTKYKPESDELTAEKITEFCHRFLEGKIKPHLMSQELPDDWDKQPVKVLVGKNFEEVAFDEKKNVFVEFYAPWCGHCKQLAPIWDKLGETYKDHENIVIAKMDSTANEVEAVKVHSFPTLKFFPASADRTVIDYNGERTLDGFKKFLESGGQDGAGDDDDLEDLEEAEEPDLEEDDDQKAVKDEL
Experiment: MTP-catalyzed transport of 14C-CE from donor SUV to acceptor SUV
Format: biochemical
Experimental: To measure the effect of compound A on bovine MTP-catalyzed transport of CE or PC between membranes, the lipid transfer assay which measures TG transfer between SUV was modified. The composition of the donor vesicles was the same, except 0.25 mol% ^14C-CE or ^14C-PC replaced the labeled TG. The composition of the acceptor vesicles were the same, except labeled PC and unlabeled TG were not included. Following precipitation of donor vesicles, the percentage of lipid transfer was calculated by comparing the ^14C-CE or -PC in the acceptor vesicles in the supernatant following a transfer reaction to the total ^14C-CE or -PC in the assay. The labeled lipid in the supernatant in the absence of MTP was subtracted from the labeled lipid in the presence MTP to calculate the MTP-catalyzed lipid transfer from donor SUV to acceptor SUV. The remainder of the assay was essentially as described previously.

decrease of CE transfer (at concentrations that inhibited approximately 40% of PC transfer): more than 80%
Compound: O=C1c2ccccc2CN1C1CCN(CCC(c2ccccc2)c2ccccc2)CC1 [compound A, 2-[1-(3,3-diphenylpropyl)-4-piperdinyl]-2,3-dihydro-3-oxo-1H-isoindole hydrochloride]
inhibition of CE transfer (result in words): comparable to its inhibition of TG transfer
